In patent US20210231538A1, “DISSOCIATION OF BIOLOGICAL SAMPLES” (priority 2018, published 2021):
Entries after “also recorded” stand apart in the source; their conditions may differ. Counter-ions that a name gives are not always drawn. Like-named read-outs stand apart in the source and are kept apart here.

What was measured:
[1] = system: Trimethylglycine:Trifluoroacetamide fixed mouse liver single-cells; experiment: Lysis of fixed cells by solvents and aqueous solutions; format: cell-based; conditions: for Cell lysis effect (4 day treatment): nuclei: whether nuclei are lysed
From the text: (§1) This is important for example if studying the RNA component of the cytoplasm, nuclei or the entire cell contents as a selection of the source of the RNA can be made based on the solvent used.

[2] = system: DES fixed cell cytoplasm and nuclei; experiment: Solubilisation of cytoplasm versus nuclei of DES fixed cells; format: cell-based; conditions: DMSO at 25% or more final concentration
From the text: as §1
Such intact nuclei can be sorted, pelleted selected, and their contents analysed either in entire nuclei by using, for example, labeled antibodies specific to nuclear epitopes such as Ki-67 or, by using fluorescent nucleic acid probes for detecting RNA and DNA. Alternatively the purified nuclei can be lysed and their contents including proteins, DNA and RNA released for further analysis such as genomic DNA sequencing, protein-protein interactions, intron splicing, CHIP analysis, chromosome analysis and/or RNA sequencing.

[3] = 500 fixed, dissociated mouse liver cells per well, bromophenol blue stained, 4 day treatment
[4] = organic solvents in the range of 80-100% final concentration

What does the source list for `[I-].[K+]` [5M Potassium iodide, Potassium iodide]?
Cell lysis effect (4 day treatment) [1, 3]: >50% cell lysis; Cell lysis effect (4 day treatment) ([1]; 500 fixed, dissociated mouse liver cells per well, bromophenol blue stained, 4 day treatment, listed as 1M Potassium iodide): No lysis; lysing of Trimethylglycine:Trifluoroacetamide (1:2 mol:mol) fixed samples [1, 4]: efficient at lysing

For `CC(O)(C(F)(F)F)C(F)(F)F` [1,1,1,3,3,3-Hexafluoro-2-methyl-2-propanol], which “lysing of Trimethylglycine:Trifluoroacetamide (1:2 mol:mol) fixed samples” value (“lysing” for short) [1, 4] is on record?
The value was “particularly effective at effectuating cell lysis”.

With `CCn1ccnc1` [100% 1-Ethylimidazole, 1-Ethylimidazole] as the molecule, how does the “Cell lysis effect (4 day treatment)” value [1, 3] read?
Its value is “No lysis”.

With `CN(C)C(=O)C(F)(F)F` [N,N-Methyl-2,2,2-Trifluoroacetamide] as the molecule, how does the “Cell lysis effect (4 day treatment)” value [1, 3] read?
The value was “No lysis”.

For IGEPAL-CA630 [50% IGEPAL-CA630], which “Cell lysis effect (4 day treatment)” value [1, 3] is on record?
Its value is 100% cell lysis.

And the “Cell lysis effect (4 day treatment)” value ([1]; 500 fixed, dissociated mouse liver cells per well, bromophenol blue stained, 4 day treatment, listed as 10% IGEPAL-CA630)?
Its value is “No lysis”.

What about the “Cell lysis effect (4 day treatment)” value ([1]; 500 fixed, dissociated mouse liver cells per well, bromophenol blue stained, 4 day treatment, listed as 30% IGEPAL-CA630) of the same molecule?
The value was “No lysis”.

How did the “Cell lysis effect (4 day treatment)” value [1, 3] turn out when `C[S+](C)[O-]` [100% DMSO, Dimethylsulphoxide] was run?
The value was over 70% cell lysis.

And the “lysing” value [1, 4]?
The value was “particularly effective at effectuating cell lysis”.

And the “solubilisation of fixed cell cytoplasm and nuclei” value [2]?
The value was “very efficiently solubilises the Trimethylglycine:Trifluoroacetamide fixed cell's cytoplasm but not the nuclei; also recorded: particularly efficient at the solubilization and removal of the cell membrane and cytoplasm but not the nucleus”.

How did the “Cell lysis effect (4 day treatment)” value [1, 3] turn out when “Tetramethyl ammonium oxide [50% Tetramethyl ammonium oxide]” was run?
The value was 100% cell lysis.

With `OC(c1ccccc1)(C(F)(F)F)C(F)(F)F` [1,1,1,3,3,3-Hexafluoro-2-phenyl-2-propanol] as the molecule, how does the “lysing” value [1, 4] read?
Its value is “particularly effective at effectuating cell lysis”.

How did the “Cell lysis effect (4 day treatment)” value [1, 3] turn out when `N=C(N)N` [5M Guanidine HCl, Guanidine HCl] was run?
Its value is over 50% cell lysis.

For `OCC(O)CO` [100% Glycerol, Glycerol], which “Cell lysis effect (4 day treatment)” value [1, 3] is on record?
Its value is “No lysis”.

With `Oc1ccccc1` [phenol] as the molecule, how does the “lysing” value [1] read?
The value was “particularly effective at effectuating cell lysis”.

`NC=O` [100% Formamide, Formamide] was tested. Which “Cell lysis effect (4 day treatment)” value [1, 3] did it give?
Its value is “No lysis”.

How did the “Cell lysis effect (4 day treatment)” value [1, 3] turn out when `CN1CCCC1=O` [50% N-methyl pyrrolidone, N-methyl pyrrolidone] was run?
The value was “No lysis”.

What does the source list for `[O-][Cl+3]([O-])([O-])O` [5M Sodium perchlorate, Sodium perchlorate]?
Cell lysis effect (4 day treatment) [1, 3]: 100% cell lysis; lysing of Trimethylglycine:Trifluoroacetamide (1:2 mol:mol) fixed samples [1, 4]: efficient at lysing

`NC(N)=O` [8M Urea, Urea] was tested. Which “Cell lysis effect (4 day treatment)” value [1, 3] did it give?
Its value is over 95%.

And the “Cell lysis effect (4 day treatment): nuclei” value ([1]; 4 day treatment)?
Its value is “not nuclei”.

Which “Cell lysis effect (4 day treatment)” value [1, 3] does the source give for `NC(N)=S` [Saturated Thiourea, Thiourea] here?
The value was 100% cell lysis.

With `O=CN1CCOCC1` [100% Formyl morpholine, Formyl morpholine] as the molecule, how does the “Cell lysis effect (4 day treatment)” value [1, 3] read?
Its value is “No lysis”.

Which “Cell lysis effect (4 day treatment)” value [1, 3] does the source give for `CC(C)=O` [100% Acetone, Acetone] here?
Its value is “No lysis”.

For `CCO` [100% Ethanol, Ethanol], which “Cell lysis effect (4 day treatment)” value [1, 3] is on record?
The value was “No lysis”.

Which “Cell lysis effect (4 day treatment)” value [1] does the source give for `N#CS.N=C(N)N` [4M Guanidine thiocyanate, Guanidine thiocyanate] here?
Its value is over 50% cell lysis.

How did the “Cell lysis effect (4 day treatment)” value [1, 3] turn out when `CCN1CCCC1=O` [100% N-ethyl pyrrolidone, N-ethyl pyrrolidone] was run?
Its value is “No lysis”.

With `[Cl-].[Li+]` [1M LiCl, LiCl] as the molecule, how does the “Cell lysis effect (4 day treatment)” value [1, 3] read?
The value was “No lysis”.

How did the “Cell lysis effect (4 day treatment)” value [1, 3] turn out when `NC(=O)C(F)(F)C(F)F` [Saturated Tetrafluoropropionamide, Tetrafluoropropionamide] was run?
The value was “No lysis”.

How did the “Cell lysis effect (4 day treatment)” value [1] turn out when `CCCC[N+](CCCC)(CCCC)CCCC.[Cl-]` [5M Tetrabutyl ammonium chloride, Tetrabutyl ammonium chloride] was run?
The value was “No lysis”.

How did the “Cell lysis effect (4 day treatment)” value [1] turn out when `C[N+](C)(C)C.[Cl-]` [5M Tetramethyl ammonium chloride, Tetramethyl ammonium chloride] was run?
Its value is “No lysis”.

For Triton X100 [1% Triton X100], which “Cell lysis effect (4 day treatment)” value [1, 3] is on record?
Its value is over 60% cell lysis.

Which “Cell lysis effect (4 day treatment)” value ([1]; 500 fixed, dissociated mouse liver cells per well, bromophenol blue stained, 4 day treatment, listed as 0.1% SDS, sulphate) does the source give for `CCCCCCCCCCCCOS(=O)(=O)[O-].[Na+]` [2% SDS, Sodium dodecyl sulphate] here?
Its value is over 15% cell lysis.

What about the “Cell lysis effect (4 day treatment)” value ([1]; 500 fixed, dissociated mouse liver cells per well, bromophenol blue stained, 4 day treatment, sulphate) of the same molecule?
Its value is “Complete Lysis”.

`NC(=O)C(F)(F)F` [Saturated Trifluoroacteamide, Trifluoroacteamide] was tested. Which “Cell lysis effect (4 day treatment)” value [1, 3] did it give?
Its value is “No lysis”.

How did the “Cell lysis effect (4 day treatment)” value [1, 3] turn out when NP40 [1% NP40] was run?
The value was over 50% cell lysis.

Which “Cell lysis effect (4 day treatment)” value [1, 3] does the source give for “10 mg/ml BSA (acetylated): BSA (acetylated)” here?
The value was “No lysis”.

Which “Cell lysis effect (4 day treatment)” value [1, 3] does the source give for `Cn1ccnc1` [100% 1-Methylimidazole, 1-Methylimidazole] here?
The value was “No lysis”.

`C[C@H](CCC(=O)NCCC[N+](C)(C)CCCS(=O)(=O)[O-])[C@H]1CC[C@H]2[C@@H]3[C@H](O)C[C@@H]4C[C@H](O)CC[C@]4(C)[C@H]3C[C@H](O)[C@]12C` [1% CHAPS, CHAPS] was tested. Which “Cell lysis effect (4 day treatment)” value [1, 3] did it give?
Its value is over 80% cell lysis.

Which “Cell lysis effect (4 day treatment)” value [1, 3] does the source give for Tween-20 [1% Tween-20] here?
The value was over 60% cell lysis.

How did the “Cell lysis effect (4 day treatment)” value [1, 3] turn out when `CCN(CC)C(=O)C(F)(F)F` [N,N-Diethyl-2,2,2-Trifluoroacetamide] was run?
Its value is “No lysis”.

What does the source list for `OC(C(F)(F)F)C(F)(F)F` [100% 1,1,1,3,3,3-Hexafluoro-2-propanol, 1,1,1,3,3,3-Hexafluoro-2-propanol]?
Cell lysis effect (4 day treatment) [1, 3]: Complete lysis; Cell lysis effect (4 day treatment) ([1]; 500 fixed, dissociated mouse liver cells per well, bromophenol blue stained, 4 day treatment, listed as 10% 1,1,1,3,3,3-Hexafluoro-2-propanol): No lysis; Cell lysis effect (4 day treatment) ([1]; 500 fixed, dissociated mouse liver cells per well, bromophenol blue stained, 4 day treatment, listed as 50% 1,1,1,3,3,3-Hexafluoro-2-propanol): >40% cell lysis; Cell lysis effect (4 day treatment) ([1]; 500 fixed, dissociated mouse liver cells per well, bromophenol blue stained, 4 day treatment, listed as 90% 1,1,1,3,3,3-Hexafluoro-2-propanol): Complete lysis; lysing of Trimethylglycine:Trifluoroacetamide (1:2 mol:mol) fixed samples [1, 4]: particularly effective at effectuating cell lysis; Cell lysis effect (4 day treatment): nuclei ([1]; 4 day treatment): including nuclei; solubilisation of fixed cell cytoplasm and nuclei [2]: very efficiently solubilises both the cytoplasm and nuclei

PEG200 [100% PEG200] was tested. Which “Cell lysis effect (4 day treatment)” value [1, 3] did it give?
Its value is “No lysis”.

`OCCS` [100% Beta-mercaptoethanol, Beta-mercaptoethanol] was tested. Which “Cell lysis effect (4 day treatment)” value [1, 3] did it give?
Its value is 100% cell lysis.

And the “Cell lysis effect (4 day treatment)” value ([1]; 500 fixed, dissociated mouse liver cells per well, bromophenol blue stained, 4 day treatment, listed as 10% Beta-mercaptoethanol)?
Its value is “No lysis”.

And the “Cell lysis effect (4 day treatment)” value ([1]; 500 fixed, dissociated mouse liver cells per well, bromophenol blue stained, 4 day treatment, listed as 20% Beta-mercaptoethanol)?
Its value is “No lysis”.

And the “Cell lysis effect (4 day treatment)” value ([1]; 500 fixed, dissociated mouse liver cells per well, bromophenol blue stained, 4 day treatment, listed as 40% Beta-mercaptoethanol)?
The value was “No lysis”.

And the “Cell lysis effect (4 day treatment)” value ([1]; 500 fixed, dissociated mouse liver cells per well, bromophenol blue stained, 4 day treatment, listed as 60% Beta-mercaptoethanol)?
The value was over 50% cell lysis.

And the “Cell lysis effect (4 day treatment)” value ([1]; 500 fixed, dissociated mouse liver cells per well, bromophenol blue stained, 4 day treatment, listed as 80% Beta-mercaptoethanol)?
Its value is over 80% cell lysis.

What about the “lysing” value [1, 4] of the same molecule?
Its value is “particularly effective at effectuating cell lysis”.
